Measured values: paper PMC11207571, “Applicability of MDR1 Overexpressing Abcb1KO-MDCKII Cell Lines for Investigating In Vitro Species Differences and Brain Penetration Prediction” (Pharmaceutics, 2024)

Legend:
[1] = Bidirectional transport assay, efflux ratio in Abcb1KO-MDCKII-Mock control cells; settings: dog, MDCK, pH 7.4
Description: Eluent A consisted of 0.1% formic acid in water, eluent B consisted of 0.1% formic acid in acetonitrile. Then, 10 µL samples were injected into the HPLC-MS/MS system. Mass spectrometric detection was performed in SRM mode, and ion transitions for each analyte were optimized during method development. Samples were analyzed in pools, with each pool containing three to four analytes.

human MDR1 [2] = target: T1, human MDR1 (Homo sapiens, UniProt P08183); test: Bidirectional transport assay, efflux ratio in Abcb1KO-MDCKII hMDR1 cells; settings: for CNS penetration classification based on hMDR1 ER alone: ER cut-off 2, in vivo rodent Kp,uu,brain cut-off 0.3; for efflux ratio at 120 min, 1 µM: human, MDCK-MDR1, pH 7.4
T1 sequence (P08183 whole entry): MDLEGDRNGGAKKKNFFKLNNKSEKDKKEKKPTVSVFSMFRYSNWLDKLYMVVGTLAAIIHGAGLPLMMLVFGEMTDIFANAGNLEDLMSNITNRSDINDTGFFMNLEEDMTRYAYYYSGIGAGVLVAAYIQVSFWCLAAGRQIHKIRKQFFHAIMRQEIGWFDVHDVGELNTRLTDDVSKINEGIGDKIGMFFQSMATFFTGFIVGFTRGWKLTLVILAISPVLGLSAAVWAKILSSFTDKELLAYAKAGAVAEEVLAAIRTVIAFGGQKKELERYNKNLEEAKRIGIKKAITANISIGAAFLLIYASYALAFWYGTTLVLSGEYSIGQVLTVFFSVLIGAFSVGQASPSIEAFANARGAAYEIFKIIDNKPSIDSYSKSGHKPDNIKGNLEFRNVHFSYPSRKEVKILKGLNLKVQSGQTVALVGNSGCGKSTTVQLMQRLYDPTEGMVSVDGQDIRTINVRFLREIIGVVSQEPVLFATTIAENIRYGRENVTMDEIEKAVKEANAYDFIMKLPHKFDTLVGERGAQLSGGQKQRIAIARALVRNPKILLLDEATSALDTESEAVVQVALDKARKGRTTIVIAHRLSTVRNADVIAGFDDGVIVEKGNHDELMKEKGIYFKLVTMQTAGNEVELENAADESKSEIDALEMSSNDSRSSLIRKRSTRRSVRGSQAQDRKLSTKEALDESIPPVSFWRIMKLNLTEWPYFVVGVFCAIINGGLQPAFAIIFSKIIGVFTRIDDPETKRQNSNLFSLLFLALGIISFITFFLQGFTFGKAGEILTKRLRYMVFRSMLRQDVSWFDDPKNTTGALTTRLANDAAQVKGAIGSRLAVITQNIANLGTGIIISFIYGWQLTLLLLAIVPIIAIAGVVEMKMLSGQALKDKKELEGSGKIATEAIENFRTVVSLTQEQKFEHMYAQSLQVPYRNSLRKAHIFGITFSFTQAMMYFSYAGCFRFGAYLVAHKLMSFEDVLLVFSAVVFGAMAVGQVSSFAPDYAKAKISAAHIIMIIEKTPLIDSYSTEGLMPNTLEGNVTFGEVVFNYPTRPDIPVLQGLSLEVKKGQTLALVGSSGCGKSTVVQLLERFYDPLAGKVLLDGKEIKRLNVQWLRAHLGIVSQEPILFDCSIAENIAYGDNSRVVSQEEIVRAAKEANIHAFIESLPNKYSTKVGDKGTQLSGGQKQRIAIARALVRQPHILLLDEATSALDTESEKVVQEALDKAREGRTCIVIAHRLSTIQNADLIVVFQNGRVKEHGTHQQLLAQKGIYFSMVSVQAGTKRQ
In short: (§1)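 Samples, combined into pools of three to four analytes, are injected onto HPLC with formic acid (0.1%)-modified aqueous and acetonitrile eluents. They are then quantified by tandem MS in SRM mode.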

rat Mdr1a [3] = target: T2, rat Mdr1a (Rattus norvegicus, UniProt Q6PSM0); test: Bidirectional transport assay, efflux ratio in Abcb1KO-MDCKII rMDR1 cells; settings: rat, pH 7.4
T2 sequence (Q6PSM0 1-1272): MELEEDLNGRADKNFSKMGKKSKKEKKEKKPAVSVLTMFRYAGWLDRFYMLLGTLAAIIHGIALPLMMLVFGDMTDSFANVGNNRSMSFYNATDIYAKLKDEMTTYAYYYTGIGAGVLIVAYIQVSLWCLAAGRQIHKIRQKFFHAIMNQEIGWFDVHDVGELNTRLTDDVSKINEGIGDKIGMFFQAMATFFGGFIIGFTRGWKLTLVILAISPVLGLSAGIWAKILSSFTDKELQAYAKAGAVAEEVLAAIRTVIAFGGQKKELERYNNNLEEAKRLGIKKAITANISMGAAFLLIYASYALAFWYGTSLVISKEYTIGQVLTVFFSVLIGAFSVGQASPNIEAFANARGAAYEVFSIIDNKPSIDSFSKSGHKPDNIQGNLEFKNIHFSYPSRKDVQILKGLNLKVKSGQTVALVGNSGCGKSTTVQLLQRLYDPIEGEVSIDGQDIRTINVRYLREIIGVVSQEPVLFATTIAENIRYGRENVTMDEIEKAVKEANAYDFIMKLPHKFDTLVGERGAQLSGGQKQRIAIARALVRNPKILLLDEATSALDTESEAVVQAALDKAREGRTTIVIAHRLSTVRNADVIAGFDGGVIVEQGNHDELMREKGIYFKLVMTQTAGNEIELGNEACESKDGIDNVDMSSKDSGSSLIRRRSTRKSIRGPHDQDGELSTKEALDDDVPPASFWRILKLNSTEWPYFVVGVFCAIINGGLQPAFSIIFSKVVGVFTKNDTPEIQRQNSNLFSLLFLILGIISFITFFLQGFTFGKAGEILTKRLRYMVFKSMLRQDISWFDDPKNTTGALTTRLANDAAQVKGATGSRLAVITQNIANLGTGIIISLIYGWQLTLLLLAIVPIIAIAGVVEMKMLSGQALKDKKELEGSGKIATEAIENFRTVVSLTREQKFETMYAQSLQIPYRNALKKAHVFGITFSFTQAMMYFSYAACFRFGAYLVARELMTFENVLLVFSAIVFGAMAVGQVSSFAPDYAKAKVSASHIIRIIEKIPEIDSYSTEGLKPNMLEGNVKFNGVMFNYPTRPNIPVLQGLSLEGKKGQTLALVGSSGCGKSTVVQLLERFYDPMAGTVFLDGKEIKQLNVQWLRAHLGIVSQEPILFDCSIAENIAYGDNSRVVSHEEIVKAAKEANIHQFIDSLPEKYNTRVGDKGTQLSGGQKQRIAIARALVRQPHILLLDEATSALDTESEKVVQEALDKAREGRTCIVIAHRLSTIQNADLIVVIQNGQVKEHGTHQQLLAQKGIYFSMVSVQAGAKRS
In short: as §1

mouse Mdr1a [4] = target: T3, mouse Mdr1a (Mus musculus, UniProt P21447); test: Bidirectional transport assay, efflux ratio in Abcb1KO-MDCKII mMDR1 cells; settings: mouse, pH 7.4
T3 sequence (P21447 whole entry): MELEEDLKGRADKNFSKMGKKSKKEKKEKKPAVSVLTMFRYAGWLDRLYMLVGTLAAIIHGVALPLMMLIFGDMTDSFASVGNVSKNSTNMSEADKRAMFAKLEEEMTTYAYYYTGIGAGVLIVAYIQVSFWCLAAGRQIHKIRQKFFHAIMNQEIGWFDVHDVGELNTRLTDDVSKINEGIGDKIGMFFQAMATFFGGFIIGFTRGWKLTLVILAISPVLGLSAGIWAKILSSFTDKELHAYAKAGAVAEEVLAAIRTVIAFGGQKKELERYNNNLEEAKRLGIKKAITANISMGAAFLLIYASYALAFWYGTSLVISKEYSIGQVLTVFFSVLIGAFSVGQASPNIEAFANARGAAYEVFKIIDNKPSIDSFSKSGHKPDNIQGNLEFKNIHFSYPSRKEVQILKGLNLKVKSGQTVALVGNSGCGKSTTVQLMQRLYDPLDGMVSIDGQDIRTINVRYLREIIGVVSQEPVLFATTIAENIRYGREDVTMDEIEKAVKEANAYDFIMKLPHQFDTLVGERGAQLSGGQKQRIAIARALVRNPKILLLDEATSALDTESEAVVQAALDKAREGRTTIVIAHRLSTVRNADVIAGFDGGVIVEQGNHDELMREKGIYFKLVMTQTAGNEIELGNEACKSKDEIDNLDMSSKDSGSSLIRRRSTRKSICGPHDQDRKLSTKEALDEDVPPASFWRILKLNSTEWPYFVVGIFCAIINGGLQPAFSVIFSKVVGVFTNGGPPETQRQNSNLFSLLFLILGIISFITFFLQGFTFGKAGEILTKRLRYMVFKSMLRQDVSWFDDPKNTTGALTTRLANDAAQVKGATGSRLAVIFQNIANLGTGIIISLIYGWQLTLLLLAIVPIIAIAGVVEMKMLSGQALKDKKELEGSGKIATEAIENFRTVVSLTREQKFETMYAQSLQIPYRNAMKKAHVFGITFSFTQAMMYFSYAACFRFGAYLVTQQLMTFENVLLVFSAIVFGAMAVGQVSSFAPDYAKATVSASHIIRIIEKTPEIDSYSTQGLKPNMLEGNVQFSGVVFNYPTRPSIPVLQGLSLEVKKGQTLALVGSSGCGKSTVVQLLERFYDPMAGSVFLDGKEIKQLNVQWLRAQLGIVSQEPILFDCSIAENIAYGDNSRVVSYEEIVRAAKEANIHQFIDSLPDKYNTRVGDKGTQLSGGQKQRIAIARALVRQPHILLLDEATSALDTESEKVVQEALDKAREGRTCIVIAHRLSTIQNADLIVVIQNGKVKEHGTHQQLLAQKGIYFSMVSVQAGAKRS
In short: as §1

cynomolgus monkey Mdr1 [5] = target: T4, cynomolgus monkey Mdr1 (Macaca fascicularis, UniProt Q8HZQ6); test: Bidirectional transport assay, efflux ratio in Abcb1KO-MDCKII cyMDR1 cells; settings: cynomolgus monkey, pH 7.4
T4 sequence (Q8HZQ6 1-1283): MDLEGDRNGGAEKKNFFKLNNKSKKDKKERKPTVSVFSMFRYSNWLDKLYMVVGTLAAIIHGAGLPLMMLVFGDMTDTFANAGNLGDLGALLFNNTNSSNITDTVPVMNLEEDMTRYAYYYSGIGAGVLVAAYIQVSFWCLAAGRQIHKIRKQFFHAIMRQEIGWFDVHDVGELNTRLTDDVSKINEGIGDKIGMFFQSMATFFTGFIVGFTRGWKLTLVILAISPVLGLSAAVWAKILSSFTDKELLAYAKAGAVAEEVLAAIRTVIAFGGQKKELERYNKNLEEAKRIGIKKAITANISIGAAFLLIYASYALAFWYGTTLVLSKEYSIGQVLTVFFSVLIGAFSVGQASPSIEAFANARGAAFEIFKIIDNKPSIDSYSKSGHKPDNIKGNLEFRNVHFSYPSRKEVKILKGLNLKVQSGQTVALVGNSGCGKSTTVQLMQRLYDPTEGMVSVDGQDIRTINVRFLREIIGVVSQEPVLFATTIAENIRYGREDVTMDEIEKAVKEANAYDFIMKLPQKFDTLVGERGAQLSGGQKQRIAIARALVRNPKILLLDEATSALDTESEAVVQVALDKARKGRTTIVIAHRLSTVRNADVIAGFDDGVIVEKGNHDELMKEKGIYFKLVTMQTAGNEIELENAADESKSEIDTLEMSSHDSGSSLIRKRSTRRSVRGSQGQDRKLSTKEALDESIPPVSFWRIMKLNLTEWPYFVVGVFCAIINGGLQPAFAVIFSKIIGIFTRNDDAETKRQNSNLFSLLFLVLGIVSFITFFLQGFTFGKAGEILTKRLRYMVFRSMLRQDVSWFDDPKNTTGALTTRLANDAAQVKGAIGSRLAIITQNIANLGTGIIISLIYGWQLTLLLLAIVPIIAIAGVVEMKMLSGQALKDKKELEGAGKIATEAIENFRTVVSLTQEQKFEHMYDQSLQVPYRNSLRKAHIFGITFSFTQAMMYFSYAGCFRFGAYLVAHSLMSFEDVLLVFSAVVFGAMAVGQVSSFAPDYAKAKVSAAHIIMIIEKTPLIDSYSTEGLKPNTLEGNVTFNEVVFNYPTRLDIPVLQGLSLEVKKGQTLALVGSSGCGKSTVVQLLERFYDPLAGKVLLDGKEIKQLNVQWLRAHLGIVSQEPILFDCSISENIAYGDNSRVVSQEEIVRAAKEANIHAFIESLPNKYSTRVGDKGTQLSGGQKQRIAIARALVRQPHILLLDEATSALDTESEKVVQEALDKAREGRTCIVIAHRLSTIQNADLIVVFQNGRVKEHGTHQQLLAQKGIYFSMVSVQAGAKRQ
In short: as §1

human BCRP = target: T5, human BCRP (Homo sapiens, UniProt Q9UNQ0); test: Bidirectional transport assay, efflux ratio in MDCKII-BCRP cells; settings: human, pH 7.4
T5 sequence (Q9UNQ0 1-655): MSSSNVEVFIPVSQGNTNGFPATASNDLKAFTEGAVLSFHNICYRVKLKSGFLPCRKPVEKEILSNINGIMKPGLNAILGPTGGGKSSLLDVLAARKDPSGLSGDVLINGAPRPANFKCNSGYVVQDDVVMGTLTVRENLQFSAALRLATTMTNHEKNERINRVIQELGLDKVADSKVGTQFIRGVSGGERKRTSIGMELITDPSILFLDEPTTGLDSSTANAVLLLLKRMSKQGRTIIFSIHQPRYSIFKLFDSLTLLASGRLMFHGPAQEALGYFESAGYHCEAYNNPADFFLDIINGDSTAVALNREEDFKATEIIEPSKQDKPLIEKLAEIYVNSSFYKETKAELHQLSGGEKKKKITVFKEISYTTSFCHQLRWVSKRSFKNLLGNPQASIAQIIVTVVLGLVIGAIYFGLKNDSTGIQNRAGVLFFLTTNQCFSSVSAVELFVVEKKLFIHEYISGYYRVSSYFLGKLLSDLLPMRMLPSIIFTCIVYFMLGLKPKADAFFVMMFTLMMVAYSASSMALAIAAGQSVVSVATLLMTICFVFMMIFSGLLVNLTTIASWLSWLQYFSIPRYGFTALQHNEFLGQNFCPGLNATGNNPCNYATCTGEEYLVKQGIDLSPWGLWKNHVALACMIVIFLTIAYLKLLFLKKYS
In short: as §1

hMDR1 and hBCRP = test: Brain permeability classification from total ER of hMDR1 and hBCRP against in vivo rodent Kp,uu,brain
Description: MDR1 and/or BCRP substrate properties were investigated by binary classification analysis on CNS+ and CNS− compounds. […] True negative (TN), where there was no efflux and the CNS+ compound crossed the BBB. […] The sensitivity and specificity of the estimation of brain penetration along with MDR1 and BCRP activity were calculated from predictive performance metrics.
First, NET ER was calculated and used for human predictions, (2) NET ER=ER(−inh)[…]ER(+inh) where ER(−inh) is ER in the absence of inhibitor, and ER(+inh) is ER in the presence of inhibitor, for hMDR1 (ERMDR1) or hBCRP (ERBCRP).
To identify the correlation between the in vivo rodent Kp,uu,brain and ERs, 58 compounds with known Kp,uu,brain were selected. An ER of 2 was used as a cut-off to classify MDR1 substrates and a Kp,uu,brain of 0.3 was used as a threshold for CNS penetrant compounds. The resulting graphs are thus divided into four quadrants. Brain penetration (Kp,uu,brain) was used as the logical value true condition, with compounds having Kp,uu,brain ≤ 0.3 considered positive. Q2 and Q3 comprise molecules with impaired brain penetration. […] Molecules in Q4 (true negatives, TN) can freely access the brain (Figure 2). Predictive performance metrics were calculated to show the efficacy of the established cell lines in BBB permeability classification (Table 1). Sensitivity refers to the ability of the model to correctly classify CNS-restricted molecules based on MDR1 substrate nature.
Subsequently, for a more reliable prediction of brain penetration, data generated in the hBCRP cell line were included in the analysis. hBCRP assay conditions and evaluations were identical to that of MDR1 cell lines, which allowed proper comparisons (Figure 2E,F). Total ER was calculated by combining ERs determined in BCRP and hMDR1 cell lines based on Equation (3), with an ER cut-off of 3. […] Eventually, total ERs were also assessed with the Relative Expression Factor (REF) (Equation (4); Figure 2E,F). REF is an in vitro and in vivo correlation scaler, calculated from transporter protein abundances in brain microvessels versus overexpressing cell lines.

cynomolgus monkey Mdr1 [6] = target: T4, cynomolgus monkey Mdr1; test: cell-based
human MDR1 [7] = target: T1, human MDR1; test: Inhibition of 3H-digoxin or 3H-quinidine bidirectional transport in hMDR1 cells; settings: IC50 from ER
cynomolgus monkey Mdr1 [8] = target: T4, cynomolgus monkey Mdr1; test: Inhibition of 3H-digoxin or 3H-quinidine bidirectional transport in cyMDR1 cells; settings: Inhibition of quinidine transport IC50±SD, cyMDR1, probe 3H-quinidine 0.1 µM, 60 min; IC50 from ER
rat Mdr1a [9] = target: T2, rat Mdr1a; test: Inhibition of 3H-digoxin or 3H-quinidine bidirectional transport in rMDR1 cells; assay type: cell-based; set-up: rat Mdr1a (NM_133401.1); expressed in transfected cells; host or cells: Abcb1KO-MDCKII (canine kidney, endogenous Abcb1 knocked out), transduced, single-cell clone; settings: IC50 from ER
mouse Mdr1a [10] = target: T3, mouse Mdr1a; test: Inhibition of 3H-digoxin or 3H-quinidine bidirectional transport in mMDR1 cells; assay type: cell-based; set-up: mouse Mdr1a (NM_011076.3); expressed in transfected cells; host or cells: Abcb1KO-MDCKII (canine kidney, endogenous Abcb1 knocked out), transduced, single-cell clone; settings: IC50 from ER
[11] = total ER cut-off 3, in vivo rodent Kp,uu,brain cut-off 0.3
[12] = Inhibition of digoxin transport IC50±SD, hMDR1, probe 3H-digoxin 1 µM, 120 min
[13] = Inhibition of quinidine transport IC50±SD, hMDR1, probe 3H-quinidine 1 µM, 60 min
[14] = Inhibition of digoxin transport IC50±SD, rMDR1, probe 3H-digoxin 1 µM, 120 min
[15] = Inhibition of quinidine transport IC50±SD, rMDR1, probe 3H-quinidine 1 µM, 30 min
[16] = Inhibition of digoxin transport IC50±SD, mMDR1, probe 3H-digoxin 1 µM, 120 min
[17] = Inhibition of quinidine transport IC50±SD, mMDR1, probe 3H-quinidine 1 µM, 60 min

| SMILES | efflux ratio at 120 min, 1 µM [1] | CNS penetration classification based on hMDR1 ER alone (human MDR1 [2]) | efflux ratio at 120 min, 1 µM (human MDR1 [2]) | efflux ratio at 120 min, 1 µM (rat Mdr1a [3]) | efflux ratio at 120 min, 1 µM (mouse Mdr1a [4]) | efflux ratio at 120 min, 1 µM (cynomolgus monkey Mdr1 [5]) | efflux ratio at 120 min, 1 µM (human BCRP) | CNS penetration classification based on total ER (hMDR1 + hBCRP) (hMDR1 and hBCRP; [11]) | IC50 (cynomolgus monkey Mdr1 [6]) [µM] | IC50 (human MDR1 [7]; [12]) [µM] | IC50 (human MDR1 [7]; [13]) [µM] | IC50 (cynomolgus monkey Mdr1 [8]) [µM] | IC50 (rat Mdr1a [9]; [14]) [µM] | IC50 (rat Mdr1a [9]; [15]) [µM] | IC50 (mouse Mdr1a [10]; [16]) [µM] | IC50 (mouse Mdr1a [10]; [17]) [µM] | CNS penetration classification based on total ER (hMDR1 + hBCRP) (hMDR1 and hBCRP; not told) |
| --- | --- | --- | --- | --- | --- | --- | --- | --- | --- | --- | --- | --- | --- | --- | --- | --- | --- |
| CCN(CC)C(=O)/C(C#N)=C/c1cc(O)c(O)c([N+](=O)[O-])c1 [Entacapone] | 0.32 ± 0.02 | false negatives | 0.28 ± 0.02 | 0.39 ± 0.03 | 0.34 ± 0.05 | 0.46 ± 0.07 | 49.4 ± 3.92 | true positives | – | – | – | – | – | – | – | – | – |
| Cc1ccc(-c2ncc(Cl)cc2-c2ccc(S(C)(=O)=O)cc2)cn1 [Etoricoxib] | 0.9 ± 0.09 | – | 1.97 ± 0.21 | 2.01 ± 0.21 | 1.72 ± 0.23 | 1.24 ± 0.21 | 2.35 ± 0.25 | false positives | 15.5 ± 11.7 | > 100 | > 100 | 25.9 ± 10.5 | 54.6 ± 3.16 | 18.8 ± 1.22 | 57.8 ± 29.8 | 22.2 ± 5.43 | – |
| N=C(N)N/N=C/c1c(Cl)cccc1Cl [Guanabenz] | 0.93 ± 0.15 | – | 0.82 ± 0.1 | 0.85 ± 0.13 | 1.08 ± 0.09 | 0.84 ± 0.1 | 3.35 ± 1.17 | false positives | – | – | – | – | – | – | – | – | – |
| COc1ccc2c(c1)c(CC(=O)O)c(C)n2C(=O)c1ccc(Cl)cc1 [Indomethacin] | 0.37 ± 0.07 | false negatives | 0.42 ± 0.05 | 0.4 ± 0.01 | 0.39 ± 0.02 | 0.4 ± 0.03 | 10.2 ± 0.71 | true positives | – | – | – | – | – | – | – | – | – |
| CN(C)C(=O)C(CCN1CCC(O)(c2ccc(Cl)cc2)CC1)(c1ccccc1)c1ccccc1 [Loperamide] | 0.49 ± 0.03 | – | 48.7 ± 3.51 | 10.5 ± 2.34 | 16 ± 2.75 | 6.38 ± 0.55 | 2 ± 0.23 | – | 6.3 ± 2.27 | 38.3 ± 4.59 | 4.75 ± 0.32 | 1.36 ± 0.34 | 11.1 ± 4.28 | 1.01 ± 0.49 | 6.5 ± 1.1 | 0.96 ± 0.33 | – |
| OC[C@@H](O)[C@@H](O)[C@H](O)[C@H](O)CO [Mannitol] | 0.96 ± 0.12 | – | 0.87 ± 0.14 | 0.89 ± 0.12 | 1.04 ± 0.16 | 0.76 ± 0.1 | 0.73 ± 0.2 | false negatives | – | – | – | – | – | – | – | – | – |
| Cc1nccn1CC1CCc2c(c3ccccc3n2C)C1=O (stereo not drawn) [Ondansetron] | 0.7 ± 0.02 | – | 5.24 ± 0.68 | 7.62 ± 0.39 | 5.33 ± 0.54 | 3.77 ± 0.64 | 4.28 ± 0.71 | false positives | – | – | – | – | – | – | – | – | – |
| CNS(=O)(=O)Cc1ccc2[nH]cc(CCN(C)C)c2c1 [Sumatriptan] | 0.93 ± 0.04 | – | 1.88 ± 0.12 | 2.02 ± 0.12 | 1.76 ± 0.08 | 1.53 ± 0.1 | 1.74 ± 0.24 | false negatives | – | – | – | – | – | – | – | – | – |
| COc1cc(Cc2cnc(N)nc2N)cc(OC)c1OC [Trimethoprim] | 0.84 ± 0.06 | – | 7.29 ± 0.69 | 13.2 ± 0.68 | 9.04 ± 0.49 | 1.65 ± 0.1 | 3.08 ± 0.17 | false positives | – | – | – | – | – | – | – | – | – |
| CC(=O)CC(c1ccccc1)c1c(O)c2ccccc2oc1=O (stereo not drawn) [Warfarin] | 0.54 ± 0.02 | – | 0.56 ± 0.02 | 0.6 ± 0.01 | 0.58 ± 0.02 | 0.58 ± 0.05 | 4.03 ± 0.29 | – | – | – | – | – | – | – | – | – | false positives |
